Like-named read-outs stand apart in the source and are kept apart here.
How the values were obtained:
S. aureus RN450 = experiment: In Vitro Anti-Bacterial Activity Assay (MIC), gram positive; format: cell-based; conditions: Staphylococcus aureus, RN450, 18 h
E. coli mL308 225 = experiment: In Vitro Anti-Bacterial Activity Assay (MIC), gram negative; format: cell-based; conditions: Escherichia coli, ML308225, 18 h
[1] = gram positive bacteria, read-out: Antibiotic Activity Gram + (MIC)
[2] = gram negative bacteria, read-out: Antibiotic Activity Gram − (MIC)
[3] = MIC class, Table 3, read-out: Antibiotic Activity Gram +
[4] = MIC class, Table 3, read-out: Antibiotic Activity Gram −
[5] = MIC class, Table 3 (Continued), read-out: Gram+ activity
[6] = MIC class, Table 3 (Continued), read-out: Gram− activity

SMILES | MIC (S. aureus RN450; [1]) [µg/mL] | MIC (E. coli mL308 225; [2]) [µg/mL] | MIC (S. aureus RN450; [3]) [µg/mL] | MIC (E. coli mL308 225; [4]) [µg/mL] | also measured
COCCOC(=O)NCc1cc(N(C)C)c2c(c1O)C(=O)C1=C(O)[C@]3(O)C(=O)C(C(N)=O)=C(O)[C@@H](N(C)C)[C@@H]3C[C@@H]1C2 | < 4 | > 4 | – | – | –
CC(C)c1ccc(CNc2cc(N(C)C)c3c(c2O)C(=O)C2=C(O)[C@]4(O)C(=O)C(C(N)=O)=C(O)[C@@H](N(C)C)[C@@H]4C[C@@H]2C3)cc1 [NN] | – | – | < 4 | > 4 | –
C[C@H]1c2ccc(N)c(O)c2C(=O)C2=C(O)[C@]3(O)C(=O)C(C(N)=O)=C(O)[C@@H](N(C)C)[C@@H]3[C@@H](O)[C@@H]21 | > 4 | > 4 | – | – | –
CCN(CC)Cc1cc(-c2ccoc2)c2c(c1O)C(=O)C1=C(O)[C@]3(O)C(=O)C(C(N)=O)=C(O)[C@@H](N(C)C)[C@@H]3C[C@@H]1C2 | < 4 | > 4 | – | – | –
CN(C)[C@@H]1C(O)=C(C(N)=O)C(=O)[C@@]2(O)C(O)=C3C(=O)c4c(O)cccc4C(CSCc4ccccc4)[C@H]3[C@H](O)[C@@H]12 (some centres unmarked) | – | – | – | – | MIC (S. aureus RN450; [5]): < 4 µg/mL; MIC (E. coli mL308 225; [6]): < 4 µg/mL
CN(C)c1cc(NCc2ccc([N+](=O)[O-])cc2)c(O)c2c1C[C@H]1C[C@H]3[C@H](N(C)C)C(O)=C(C(N)=O)C(=O)[C@@]3(O)C(O)=C1C2=O | < 4 | > 4 | – | – | –
CC(O)CCc1ccc(O)c2c1C[C@H]1C[C@H]3[C@H](N(C)C)C(O)=C(C(N)=O)C(=O)[C@@]3(O)C(O)=C1C2=O (some centres unmarked) [CR] | – | – | < 4 | > 4 | –
CN(C)[C@@H]1C(O)=C(C(N)=O)C(=O)[C@@]2(O)C(O)=C3C(=O)c4c(O)ccc(C#N)c4C[C@H]3C[C@@H]12 | < 4 | < 4 | – | – | –
COc1ncc(-c2ccc(O)c3c2C[C@H]2C[C@H]4[C@H](N(C)C)C(O)=C(C(N)=O)C(=O)[C@@]4(O)C(O)=C2C3=O)c(OC)n1 [GF] | – | – | < 4 | < 4 | –
COC1CCN(Cc2cc(N(C)C)c3c(c2O)C(=O)C2=C(O)[C@]4(O)C(=O)C(C(N)=O)=C(O)[C@@H](N(C)C)[C@@H]4C[C@@H]2C3)CC1 | < 4 | < 4 | – | – | –
CNCOc1ccc(-c2ccc(O)c3c2C[C@H]2C[C@H]4[C@H](N(C)C)C(O)=C(C(N)=O)C(=O)[C@@]4(O)C(O)=C2C3=O)cc1 | < 4 | < 4 | – | – | –
CCOP(=O)(OCC)C(Nc1cc(N(C)C)c2c(c1O)C(=O)C1=C(O)[C@]3(O)C(=O)C(C(N)=O)=C(O)[C@@H](N(C)C)[C@@H]3C[C@@H]1C2)c1ccccc1 (some centres unmarked) [AA] | – | – | – | – | MIC (S. aureus RN450; read-out: Antibiotic Activity Gram +): > 4 µg/mL; MIC (E. coli mL308 225; read-out: Antibiotic Activity Gram −): > 4 µg/mL
CN(C)c1cc(CNc2nc(C(F)(F)F)co2)c(O)c2c1C[C@H]1C[C@H]3[C@H](N(C)C)C(O)=C(C(N)=O)C(=O)[C@@]3(O)C(O)=C1C2=O | < 4 | < 4 | – | – | –
CN(C)[C@@H]1C(O)=C(C(N)=O)C(=O)[C@@]2(O)C(O)=C3C(=O)c4c(O)ccc(C#CCNS(C)(=O)=O)c4C[C@H]3C[C@@H]12 [CM] | – | – | > 4 | > 4 | –
COc1ccc(-c2cc(CNC(C)CF)c(O)c3c2C[C@H]2C[C@H]4[C@H](N(C)C)C(O)=C(C(N)=O)C(=O)[C@@]4(O)C(O)=C2C3=O)cc1 (some centres unmarked) | < 4 | – | – | – | MIC (E. coli mL308 225; read-out: Antibiotic Activity Gram − (MIC)): > 4 µg/mL
CCOC(=O)C(NCc1ccc(OC)c(-c2ccc(O)c3c2C[C@H]2C[C@H]4[C@H](N(C)C)C(O)=C(C(N)=O)C(=O)[C@@]4(O)C(O)=C2C3=O)c1)C(C)C (some centres unmarked) [FX] | – | – | < 4 | > 4 | –
CN(C)c1cc(C#Cc2ccccc2)c(O)c2c1C[C@H]1C[C@H]3[C@H](N(C)C)C(O)=C(C(N)=O)C(=O)[C@@]3(O)C(O)=C1C2=O | – | – | – | – | MIC (S. aureus RN450; [5]): < 4 µg/mL; MIC (E. coli mL308 225; [6]): < 4 µg/mL
C[C@H]1c2ccc(CN3CCC4(CC3)OCCO4)c(O)c2C(=O)C2=C(O)[C@]3(O)C(=O)C(C(N)=O)=C(O)[C@@H](N(C)C)[C@@H]3[C@@H](O)[C@@H]21 | < 4 | < 4 | – | – | –
CN1C=CC(Nc2cc(C3=COCC3)c3c(c2O)C(=O)C2=C(O)[C@]4(O)C(=O)C(C(N)=O)=C(O)[C@@H](N(C)C)[C@@H]4C[C@@H]2C3)CC1 (some centres unmarked) | < 4 | > 4 | – | – | –
C[C@H]1c2ccc(N3CCCCC3)c(O)c2C(=O)C2=C(O)[C@]3(O)C(=O)C(C(N)=O)=C(O)[C@@H](N(C)C)[C@@H]3[C@@H](O)[C@@H]21 [JV] | – | – | < 4 | > 4 | –
CN(C)C1C(O)=C(C(N)=O)C(=O)[C@@]2(O)C(O)=C3C(=O)c4c(O)ccc(-c5ccc(CN6CCCC6)cc5)c4C[C@H]3C[C@@H]12 (some centres unmarked) [BT] | – | – | < 4 | < 4 | –
CN(C)c1cc(CN2C3CCC2CC3)c(O)c2c1C[C@H]1C[C@H]3[C@H](N(C)C)C(O)=C(C(N)=O)C(=O)[C@@]3(O)C(O)=C1C2=O | < 4 | > 4 | – | – | –
